Peptide text beside a SMILES is read from it. * marks the point of attachment. Biotin = O=C1N[C@H]2[C@H](CS[C@H]2CCCCC(=O)*)N1
What was measured:
Test in all cases: G' assay (10 uM PL peptide), results of TABLE 7 and TABLE 12
Format in all cases: binding
[1] = biological target: T1, PDZ protein (GST-PDZ fusion) (Homo sapiens, UniProt Q13424); details: PDZ Synt. 1 alpha, PDZ Domain 1
T1 construct: made in house; host or cells: E. coli (DH5alpha, BL21 or JM109)
T1 sequence (Q13424 1-505): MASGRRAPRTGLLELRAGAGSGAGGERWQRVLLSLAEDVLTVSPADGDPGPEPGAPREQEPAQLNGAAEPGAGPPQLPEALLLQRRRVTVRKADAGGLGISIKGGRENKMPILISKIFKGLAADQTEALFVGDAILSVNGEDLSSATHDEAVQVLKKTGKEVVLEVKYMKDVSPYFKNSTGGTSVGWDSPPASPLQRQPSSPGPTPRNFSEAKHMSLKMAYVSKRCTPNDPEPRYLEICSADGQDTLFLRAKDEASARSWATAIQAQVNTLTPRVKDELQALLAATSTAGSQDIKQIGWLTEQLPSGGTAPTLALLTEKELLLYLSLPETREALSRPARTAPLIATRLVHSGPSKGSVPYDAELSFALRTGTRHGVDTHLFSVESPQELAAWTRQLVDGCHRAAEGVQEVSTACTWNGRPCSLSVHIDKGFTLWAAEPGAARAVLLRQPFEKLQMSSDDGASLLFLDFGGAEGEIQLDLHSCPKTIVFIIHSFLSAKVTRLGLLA
Summary of the method: (§1)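 Same steps as the G-zero format, apart from a peptide concentration of 10 uM in place of 20 uM in step 2. Amino-terminally biotinylated PL peptides bind GST-PDZ fusions, and retained peptide is quantified by 450 nm absorbance.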

[2] = biological target: T2, PDZ protein (GST-PDZ fusion) (Homo sapiens, UniProt Q9NSN8); details: PDZ Syntrophin gamma-1, PDZ Domain 1
T2 construct: made in house; host or cells: E. coli (DH5alpha, BL21 or JM109)
T2 sequence (Q9NSN8 1-517): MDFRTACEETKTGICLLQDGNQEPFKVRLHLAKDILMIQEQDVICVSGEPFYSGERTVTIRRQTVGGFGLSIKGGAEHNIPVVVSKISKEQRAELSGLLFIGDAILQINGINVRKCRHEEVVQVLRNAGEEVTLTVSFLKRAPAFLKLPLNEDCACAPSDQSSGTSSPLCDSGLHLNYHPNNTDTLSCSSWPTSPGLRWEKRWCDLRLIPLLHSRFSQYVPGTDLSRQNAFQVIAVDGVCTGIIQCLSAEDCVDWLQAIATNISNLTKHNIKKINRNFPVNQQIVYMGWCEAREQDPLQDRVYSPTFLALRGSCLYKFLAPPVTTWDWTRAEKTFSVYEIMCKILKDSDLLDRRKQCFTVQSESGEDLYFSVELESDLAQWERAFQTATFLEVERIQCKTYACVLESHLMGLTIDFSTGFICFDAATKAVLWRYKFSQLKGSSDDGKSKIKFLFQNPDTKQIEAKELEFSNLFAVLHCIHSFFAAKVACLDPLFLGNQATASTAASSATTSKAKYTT
Summary of the method: as §1

[3] = biological target: T3, PDZ protein (GST-PDZ fusion) (Homo sapiens, UniProt Q8TEW0); details: PDZ PAR3, PDZ Domain 3
T3 construct: made in house; host or cells: E. coli (DH5alpha, BL21 or JM109)
Summary of the method: as §1

T3 sequence (Q8TEW0 whole entry, the tested form may be a part): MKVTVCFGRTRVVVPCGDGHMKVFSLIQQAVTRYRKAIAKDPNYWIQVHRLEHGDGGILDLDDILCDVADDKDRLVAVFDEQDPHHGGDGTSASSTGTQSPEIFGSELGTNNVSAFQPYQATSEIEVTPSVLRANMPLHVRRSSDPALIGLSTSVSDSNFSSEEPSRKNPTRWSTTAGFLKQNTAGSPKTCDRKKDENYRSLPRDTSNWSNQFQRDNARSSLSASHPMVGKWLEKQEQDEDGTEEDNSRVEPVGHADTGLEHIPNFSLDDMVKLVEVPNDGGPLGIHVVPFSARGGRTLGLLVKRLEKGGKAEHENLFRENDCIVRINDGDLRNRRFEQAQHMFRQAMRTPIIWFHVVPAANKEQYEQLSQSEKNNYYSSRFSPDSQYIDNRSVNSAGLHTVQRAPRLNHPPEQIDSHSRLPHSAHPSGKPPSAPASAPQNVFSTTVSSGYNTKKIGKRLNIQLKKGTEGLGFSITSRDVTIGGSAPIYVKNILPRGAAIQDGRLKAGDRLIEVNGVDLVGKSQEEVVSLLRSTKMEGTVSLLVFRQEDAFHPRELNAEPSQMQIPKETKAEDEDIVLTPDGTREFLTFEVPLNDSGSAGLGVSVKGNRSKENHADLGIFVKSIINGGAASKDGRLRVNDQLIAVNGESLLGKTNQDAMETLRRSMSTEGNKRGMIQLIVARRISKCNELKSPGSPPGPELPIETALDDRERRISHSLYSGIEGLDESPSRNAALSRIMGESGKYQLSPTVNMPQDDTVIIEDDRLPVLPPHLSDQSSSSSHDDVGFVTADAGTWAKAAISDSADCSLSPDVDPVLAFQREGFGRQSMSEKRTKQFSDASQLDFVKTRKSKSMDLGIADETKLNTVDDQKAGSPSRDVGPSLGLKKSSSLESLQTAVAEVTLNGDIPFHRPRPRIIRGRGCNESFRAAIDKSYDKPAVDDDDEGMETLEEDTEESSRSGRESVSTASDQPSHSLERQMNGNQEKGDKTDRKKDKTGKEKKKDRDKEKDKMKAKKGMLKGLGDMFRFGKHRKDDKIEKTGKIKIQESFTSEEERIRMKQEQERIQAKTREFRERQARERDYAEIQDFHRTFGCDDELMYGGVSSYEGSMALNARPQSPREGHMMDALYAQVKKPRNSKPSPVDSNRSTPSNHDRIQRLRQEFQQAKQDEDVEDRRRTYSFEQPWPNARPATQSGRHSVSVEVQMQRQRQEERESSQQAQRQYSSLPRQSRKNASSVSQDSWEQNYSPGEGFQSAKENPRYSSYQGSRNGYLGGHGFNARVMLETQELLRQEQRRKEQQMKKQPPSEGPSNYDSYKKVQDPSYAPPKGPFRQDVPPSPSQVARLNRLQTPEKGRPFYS

Row | Classification [1] | Classification [2] | Classification [3] | Compound
1 | 1 (A450 nm 0-1) | 1 (A450 nm 0-1) | – | CC[C@H](C)[C@H](NC(=O)[C@H](Cc1c[nH]cn1)NC(=O)[C@H](C)NC(=O)[C@H](C)NC(=O)[C@H](CO)NC(=O)[C@@H]1CCCN1C(=O)[C@H](CCCNC(=N)N)NC(=O)[C@H](CC(=O)O)NC(=O)[C@H](CCCCN)NC(=O)[C@@H]1CCCN1C(=O)[C@H](CC(=O)O)NC(=O)[C@H](CCC(=O)O)NC(=O)CCCC[C@@H]1SC[C@@H]2NC(=O)N[C@@H]21)C(=O)N[C@H](C(=O)N[C@@H](CCC(=O)O)C(=O)N[C@@H](C)C(=O)N[C@@H](CC(C)C)C(=O)N[C@@H](CCC(=O)O)C(=O)N[C@H](C(=O)N[C@@H](CC(=O)O)C(=O)N[C@H](C(=O)O)C(C)C)[C@@H](C)O)C(C)C [PDZ-binding kinase (PBK)] (Biotin-EDPKDRPSAAHIVEALETDV-OH; C-terminus assumed)
2 | 3 (A450 nm 2-3) | 1 (A450 nm 0-1) | 1 (A450 nm 0-1) | CC(C)C[C@H](NC(=O)[C@H](CC(=O)O)NC(=O)[C@H](CO)NC(=O)[C@H](CCC(=O)O)NC(=O)CNC(=O)[C@H](Cc1ccc(O)cc1)NC(=O)[C@H](CC(C)C)NC(=O)[C@H](C)NC(=O)[C@H](CO)NC(=O)[C@H](CO)NC(=O)[C@H](Cc1ccccc1)NC(=O)[C@H](C)NC(=O)[C@H](C)NC(=O)[C@H](Cc1ccc(O)cc1)NC(=O)[C@H](CC(=O)O)NC(=O)[C@H](CC(C)C)NC(=O)[C@H](C)NC(=O)CNC(=O)[C@@H]1CCCN1C(=O)[C@@H](NC(=O)CCCC[C@@H]1SC[C@@H]2NC(=O)N[C@@H]21)C(C)C)C(=O)O [a-actinin 2] (Biotin-VPGALDYAAFSSALYGESDL-OH; C-terminus assumed)
3 | 4 (A450 nm 3-4) | 4 (A450 nm 3-4) | – | TQGFPGPATWRRISSLESEV

Row | Compound | Classification [1] | Classification [2] | Classification [3]
4 | CC(C)C[C@H](NC(=O)[C@H](C)NC(=O)[C@H](CO)NC(=O)CNC(=O)[C@@H](NC(=O)CCCC[C@@H]1SC[C@@H]2NC(=O)N[C@@H]21)[C@@H](C)O)C(=O)N[C@@H](CCC(N)=O)C(=O)N[C@@H](C)C(=O)N[C@@H](Cc1c[nH]c2ccccc12)C(=O)N[C@@H](CCCNC(=N)N)C(=O)N[C@@H](Cc1c[nH]cn1)C(=O)N[C@H](C(=O)N[C@@H](CO)C(=O)N[C@@H](CCCNC(=N)N)C(=O)N[C@@H](CCC(N)=O)C(=O)N[C@@H](C)C(=O)N[C@H](C(=O)N[C@@H](CCC(=O)O)C(=O)N[C@@H](CO)C(=O)N[C@H](C(=O)N[C@H](C(=O)O)C(C)C)[C@@H](C)O)[C@@H](C)O)[C@@H](C)O [HPV E6 #66 (modified)] (Biotin-TGSALQAWRHTSRQATESTV-OH; C-terminus assumed) | 2 (A450 nm 1-2) | 1 (A450 nm 0-1) | –

From patent publication US20050282743A1, “Molecular interactions in cells” (Arbor Vita Corporation, priority 2001, published 2005)
